Test results from article PMC3057186, “Identification and characterization of seven new exon 11-associated splice variants of the rat mu opioid receptor gene, OPRM1” (Molecular Pain, 2011).

Experiments:
Assay in all cases: [3H]DAMGO saturation binding, CHO membranes
rMOR-1H2 = biological target: T1, rMOR-1H2 (Rattus norvegicus, UniProt D2CKI5)
T1 construct: gene Oprm1; 7 TM

rMOR-1H1 = biological target: T2, rMOR-1H1 (Rattus norvegicus, UniProt B8Q1M0)
T2 construct: gene Oprm1; exon 11-associated transcript predicting the same protein as rMOR-1 (AUG in exon 1a)

rMOR-1i2 = biological target: T3, rMOR-1i2 (Rattus norvegicus, UniProt B8Q1M0)
T3 construct: gene Oprm1; exon 11-associated transcript predicting the same protein as rMOR-1 (AUG in exon 1a)
T3 sequence (B8Q1M0 1-398): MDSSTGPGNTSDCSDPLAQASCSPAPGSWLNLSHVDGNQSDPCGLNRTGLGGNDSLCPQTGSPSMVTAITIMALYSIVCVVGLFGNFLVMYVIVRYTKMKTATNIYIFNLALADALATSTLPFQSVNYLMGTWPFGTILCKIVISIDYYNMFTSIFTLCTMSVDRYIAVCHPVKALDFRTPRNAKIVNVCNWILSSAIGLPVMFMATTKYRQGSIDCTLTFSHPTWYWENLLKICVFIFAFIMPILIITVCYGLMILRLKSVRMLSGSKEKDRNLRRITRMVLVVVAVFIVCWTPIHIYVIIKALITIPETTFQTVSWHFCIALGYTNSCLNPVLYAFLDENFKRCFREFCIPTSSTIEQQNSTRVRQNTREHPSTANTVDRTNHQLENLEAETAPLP

T2 sequence (B8Q1M0 1-398): as above
T1 sequence (D2CKI5 1-448): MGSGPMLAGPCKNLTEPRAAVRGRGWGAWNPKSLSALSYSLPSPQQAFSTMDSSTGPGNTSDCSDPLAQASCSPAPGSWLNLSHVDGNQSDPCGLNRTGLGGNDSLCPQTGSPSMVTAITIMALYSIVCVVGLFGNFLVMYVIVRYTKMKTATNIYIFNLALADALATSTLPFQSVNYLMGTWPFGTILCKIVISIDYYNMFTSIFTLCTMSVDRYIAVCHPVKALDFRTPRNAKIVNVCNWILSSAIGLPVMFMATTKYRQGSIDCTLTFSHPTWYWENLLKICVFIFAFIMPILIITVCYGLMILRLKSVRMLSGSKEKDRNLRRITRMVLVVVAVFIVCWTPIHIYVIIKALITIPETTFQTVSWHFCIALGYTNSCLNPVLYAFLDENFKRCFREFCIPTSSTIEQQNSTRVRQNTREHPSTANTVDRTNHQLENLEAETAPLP

Compound C[C@@H](NC(=O)[C@@H](N)Cc1ccc(O)cc1)C(=O)NCC(=O)N(C)[C@@H](Cc1ccccc1)C(=O)NCCO [DAMGO] has a Kd (rMOR-1H2) of 0.37 ± 0.02 nM, a Kd (rMOR-1H1) of 0.51 ± 0.05 nM and a Kd (rMOR-1i2) of 0.36 ± 0.04 nM.
